Where “and” joins values, the source holds several entries; their conditions need not be identical. Equal values may be shown once.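 A five-concentration, 48-hour dose response in 96-well plates underlies each endpoint, interpolated linearly between surrounding concentrations. Abbreviation: GI50, concentration required for 50% inhibition of growth. TGI: total growth inhibition.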
System: UACC-62 melanoma
Assay: NCI-60 cell line screen, 48 h

SMILES	GI50	TGI
Cn1cc(C2=C(c3ccc(N)cc3)C(=O)NC2=O)c2ccccc21	11.8 µM	> 25 µM
Cc1cc(Cl)cc(OCCn2cc(F)cn2)c1-c1nc(N)nc2c1CN(C(=O)NCC(C)(F)F)C2	0.0779 µM	> 100 µM
COc1ccc(/C=C\[N+](=O)[O-])cc1OC	2.62 µM	12.3 µM
CCN(CC)CCC(CNc1ccnc2cc(Cl)ccc12)c1ccc(Cl)cc1 (stereo not given)	1.18 µM	2.69 µM
COc1cccc(F)c1C(=O)c1cnc(NC2CCN(S(C)(=O)=O)CC2)nc1N	2.66 µM	9.42 µM
COc1cc(OCc2cccc(-c3ccc(C(O)c4nccs4)cc3)c2C)cc(OC)c1C=O (stereo not given)	0.349 µM	1.92 µM
COC(=O)c1ccc2c(c1)nc(NC(=O)c1ccccc1)n2CCCc1ccccc1	2.49 µM	> 27 µM
O=C(O)COc1ccc2c(=O)c3sc4c(=O)c5ccccc5c(=O)c4c3c(=O)c2c1	12 µM	39.4 µM
O=C(Nc1ccc2ncccc2c1)Nc1ccc2ncccc2c1	–	> 100 µM
CC1(C)S[C@@H]2[C@H](NC(=O)C3(N)CCCCC3)C(=O)N2[C@H]1C(=O)O	–	> 100 µM
NC(=O)/C=C/C(=O)c1c(Cl)cccc1Cl	1.51 µM	2.84 µM
CC1(C)N=C(N)N=C(N)N1c1ccc(CCCCc2ccc(Cl)cc2S(=O)(=O)F)c(Cl)c1	0.344 µM	14.3 µM
O=C(Nc1ccc(Nc2ccncc2)cc1)c1ccc([N+](=O)[O-])cc1	2.65 µM	9.64 µM
C(=NCCN1CCOCC1)=NC1CCCCC1	–	> 100 µM
COc1ccccc1/C=N\N/C(N)=N\N=C\c1ccccc1OC	0.497 µM	> 40.7 µM
Oc1ccc(Nc2ncnc3c2sc2ncccc23)cc1	0.0379 µM	46.1 µM
COc1cccc(CC(C)=C(c2ccc(OCCN(C)C)cc2)c2ccc(OCCN(C)C)cc2)c1	0.689 µM	1.5 µM
COC(=O)COc1ccccc1/C=C1\N=C(c2ccccc2)N(c2cc(C(F)(F)F)ccc2Cl)C1=O	> 100 µM	> 100 µM
C=C1C(=O)OC2CC(C)C(C(CC(C)=O)OC(C)=O)=CCC12 (stereo not given)	–	25.4 µM
CC(=O)OC1COC(Oc2c(C)c3c4c(c2O)[C@@H](C)CC[C@@H]4[C@@H](C)C[C@H]3C=C(C)C)C(O)C1OC(C)=O (stereo not given in full)	15.1 µM	28.9 µM
S=C(Nc1ccc(Cl)cc1)Nc1ccc(-c2nc3ccccc3s2)cc1	10.4 µM	24.8 µM
COC(=O)C[C@](O)(CCCC(C)(C)O)C(=O)O[C@@H]1C(OC)=C[C@]23CCCN2CCc2cc4c(cc2[C@H]13)OCO4	0.03 µM	0.712 µM and 0.137 µM

System: 786-0 renal
Assay: NCI-60 cell line screen, 48 h

SMILES	GI50	TGI
COc1ccc(OC)c2c1[nH]c(=O)c1c3ccccc3cn21	1.88 µM	3.34 µM
COc1cccc2c1C(=O)c1c(O)c3c(c(O)c1C2=O)C[C@@](O)(C(=O)CO)C[C@@H]3OC1CC(N)CC(C)O1 (stereo not given in full)	0.02 µM	0.514 µM and 0.568 µM
CN(C)CCNC(=O)c1cccc2ccc(-c3ccc(O)cc3)nc12	–	14.4 µM
COc1cc(Nc2ncccc2C(=O)NCc2cn(Cc3cccc(Oc4ccccc4)c3)nn2)cc(OC)c1	6.73 µM	> 100 µM
COc1cccc(C2CC(C)(O)Oc3cc4c(cc32)OCO4)c1O (stereo not given)	–	> 100 µM
Cn1cc(C2=C(c3ccc(N)cc3)C(=O)NC2=O)c2ccccc21	11.9 µM	> 25 µM
Cc1cc(Cl)cc(OCCn2cc(F)cn2)c1-c1nc(N)nc2c1CN(C(=O)NCC(C)(F)F)C2	3.18 µM	> 100 µM
COc1ccc(/C=C\[N+](=O)[O-])cc1OC	1.9 µM	3.87 µM
CCN(CC)CCC(CNc1ccnc2cc(Cl)ccc12)c1ccc(Cl)cc1 (stereo not given)	1.34 µM	2.68 µM
COc1cccc(F)c1C(=O)c1cnc(NC2CCN(S(C)(=O)=O)CC2)nc1N	6.06 µM	> 25 µM
COc1cc(OCc2cccc(-c3ccc(C(O)c4nccs4)cc3)c2C)cc(OC)c1C=O (stereo not given)	2.16 µM	7.2 µM

Reference: PubChem BioAssay (NCI)
